Reference: US20220322671A1, “METHODS TO REDUCE CONTAMINATION, BIOFILM AND FOULING FROM WATER SYSTEMS, SURFACES, AND PRODUCTS” (Aequor, Inc., priority 2019, published 2022)
Where “and” joins values, the source holds several entries; their conditions need not be identical. Equal entries are not always repeated. Where two headings read alike, the source gives them in different places.

Experiments:
A. niger ATCC 16888 = assay: MIC broth microdilution, A. niger; assay type: cell-based
P. aeruginosa NR-31041 = assay: MIC broth microdilution, P. aeruginosa; assay type: cell-based, Pseudomonas aeruginosa
S. aureus ATCC 12600 = assay: MIC broth microdilution, S. aureus; assay type: cell-based
[1] = tested on: Heterochlorella luteoviridis cf. (SAG 2203); assay: Algae growth inhibition; assay type: cell-based; conditions: 1% concentration, 14 days, absorbance 750 nm
Procedure: The molecules (SDBS, SDS, SEHS, and DBSA) were added to the growth culture medium of algae Heterochlorella luteoviridis cf. (SAG 2203.) Algae was grown in 50 ml tubes at 28 °C for 14 days. Absorbance (optical density) was measured at 750 nm in a spectrophotometer and used to determine concentration to inhibit the growth of algae.

E. coli ATCC 11775 = assay: MIC broth microdilution, E. coli; assay type: cell-based
MRSA ATCC 33591 = assay: MIC broth microdilution, MRSA; assay type: cell-based, S. aureus Methicillin-Resistant
[2] = tested on: C. marina ATCC 25374 biofilm; assay: MBEC biofilm eradication assay, C. marina; assay type: cell-based
C. marina ATCC 25374 [3] = assay: MIC broth microdilution, C. marina; assay type: cell-based
C. marina ATCC 25374 [4] = assay: Minimum bactericidal concentration, C. marina; assay type: cell-based
L. fermentum (ATCC 9338) = assay: MIC broth microdilution, L. fermentum; assay type: cell-based, Lactobacillus fermentum
[5] = 24- and 48-hour biofilm, 30 min exposure
[6] = C. marina ATCC 25374, materials in water

SMILES: CCCCCCCCCCCCOS(=O)(=O)[O-].[Na+] [SDS, sodium dodecyl sulfate]
- Minimum Inhibitory Concentration (MIC) M07-09 Method, AN (A. niger ATCC 16888): 0.030 % v/v
- Minimum Inhibitory Concentration (MIC) M07-09 Method, PA (P. aeruginosa NR-31041): 0.500 % v/v
- Minimum Inhibitory Concentration (MIC) M07-09 Method, SA (S. aureus ATCC 12600): 0.028 % v/v
- Algae growth [1]: inhibited
- Minimum Inhibitory Concentration (MIC) M07-09 Method, EC (E. coli ATCC 11775): 0.100 % v/v
- Minimum Inhibitory Concentration (MIC) M07-09 Method, MRSA (MRSA ATCC 33591): 0.028 % v/v

SMILES: CCCCC(CC)COS(=O)(=O)[O-].[Na+] (stereo not drawn) [SEHS, sodium 2-ethylhexylsulfate]
- Minimum Inhibitory Concentration (MIC) M07-09 Method, PA (P. aeruginosa NR-31041): 0.500 % v/v
- Minimum Inhibitory Concentration (MIC) M07-09 Method, SA (S. aureus ATCC 12600): 0.280 % v/v
- Algae growth [1]: inhibited
- MBEC ASTM E2799-12 Method (% v/v) [2, 5]: >0.5 % v/v
- Growth of C. marina (in words) (C. marina ATCC 25374 [3]): inhibited growth
- Minimum Inhibitory Concentration (% v/v) M07-09 Method (C. marina ATCC 25374 [3]): 0.0313 % v/v
- % Reduction Compared to Control (C. marina ATCC 25374 [4]): 99.9999%
- CFU/ml (C. marina ATCC 25374 [4]): <1E+02^1 CFU/ml
- Minimum Bactericidal Concentration (% v/v) CLSI M26-A Method (C. marina ATCC 25374 [4]): 0.0630 % v/v

SMILES: CCCCCCCCCCCCc1ccc(S(=O)(=O)O)cc1 [DBSA, 4-Dodecylbenzenesulfonic acid]
- Minimum Inhibitory Concentration (MIC) M07-09 Method, AN (A. niger ATCC 16888; A. niger ATCC 16888): 0.003 % v/v
- Minimum Inhibitory Concentration (MIC) M07-09 Method, PA (P. aeruginosa NR-31041; P. aeruginosa NR-31041): 0.500 % v/v
- Minimum Inhibitory Concentration (MIC) M07-09 Method, SA (S. aureus ATCC 12600; S. aureus ATCC 12600): 0.003 % v/v
- Algae growth [1]: inhibited
- Minimum Inhibitory Concentration (MIC) (% v/v) M07-09 Method, L. fermentum (L. fermentum (ATCC 9338)): 0.0150 % v/v
- MBEC ASTM E2799-12 Method (% v/v) [2, 5]: >0.5 % v/v
- % Biofilm Removal Efficacy ([2]; 48-hour biofilm, 0.0078 % v/v): 73.64%
- Log Reduction ([2]; 48-hour biofilm, 0.0078 % v/v): 0.58
- % Biofilm Removal Efficacy ([2]; 48-hour biofilm, 0.0156 % v/v): 86.36%
- Log Reduction ([2]; 48-hour biofilm, 0.0156 % v/v): 0.87
- % Biofilm Removal Efficacy ([2]; 48-hour biofilm, 0.0313 % v/v): 96.27%
- Log Reduction ([2]; 48-hour biofilm, 0.0313 % v/v): 1.43
- % Biofilm Removal Efficacy ([2]; 48-hour biofilm, 0.0630 % v/v): 98.27%
- Log Reduction ([2]; 48-hour biofilm, 0.0630 % v/v): 1.76
- Removal of existing 48-hour biofilm (up to) ([2]; 48-hour biofilm, best of the tested concentrations): ≤ 99%
- Growth of C. marina (in words) (C. marina ATCC 25374 [3]; C. marina): inhibited growth
- Minimum Inhibitory Concentration (% v/v) M07-09 Method (C. marina ATCC 25374 [3]; [6]): < 0.0039 % v/v
- Minimum Inhibitory Concentration (MIC) M07-09 Method, EC (E. coli ATCC 11775; E. coli ATCC 11775): 0.100 % v/v
- % Reduction Compared to Control (C. marina ATCC 25374 [4]; C. marina ATCC 25374, killing): 99.9999%
- Minimum Bactericidal Concentration (% v/v) CLSI M26-A Method (C. marina ATCC 25374 [4]; [6]): 0.0078 % v/v
- CFU/ml (C. marina ATCC 25374 [4]; C. marina ATCC 25374, detection limit <1E+02): <1E+02^1 CFU/ml
- Minimum Inhibitory Concentration (MIC) M07-09 Method, MRSA (MRSA ATCC 33591): 0.003 % v/v

SMILES: CCCCOP(=O)(O)OCCCC [DBP, dibutyl phosphate]
- % Reduction Compared to Control [2]: 99.9999% and 99.999%
- Log Reduction [2]: 5.5
- MBEC ASTM E2799-12 Method (% v/v) [2]: 0.5 % v/v
- Growth of C. marina (in words) (C. marina ATCC 25374 [3]): inhibited growth
- Minimum Inhibitory Concentration (% v/v) M07-09 Method (C. marina ATCC 25374 [3]): 0.1250 % v/v
- % Reduction Compared to Control (C. marina ATCC 25374 [4]): 99.9999%
- CFU/ml (C. marina ATCC 25374 [4]): <1E+02^1 CFU/ml
- Minimum Bactericidal Concentration (% v/v) CLSI M26-A Method (C. marina ATCC 25374 [4]): 0.5000 % v/v
